{
  "source": "ChEMBL document CHEMBL1201862",
  "about": "“PubChem BioAssay data set” (2004)",
  "key": {"[1]": {"biological_target": "T1, Microphthalmia-associated transcription factor (Homo sapiens, UniProt O75030)", "T1 sequence (O75030 whole entry)": "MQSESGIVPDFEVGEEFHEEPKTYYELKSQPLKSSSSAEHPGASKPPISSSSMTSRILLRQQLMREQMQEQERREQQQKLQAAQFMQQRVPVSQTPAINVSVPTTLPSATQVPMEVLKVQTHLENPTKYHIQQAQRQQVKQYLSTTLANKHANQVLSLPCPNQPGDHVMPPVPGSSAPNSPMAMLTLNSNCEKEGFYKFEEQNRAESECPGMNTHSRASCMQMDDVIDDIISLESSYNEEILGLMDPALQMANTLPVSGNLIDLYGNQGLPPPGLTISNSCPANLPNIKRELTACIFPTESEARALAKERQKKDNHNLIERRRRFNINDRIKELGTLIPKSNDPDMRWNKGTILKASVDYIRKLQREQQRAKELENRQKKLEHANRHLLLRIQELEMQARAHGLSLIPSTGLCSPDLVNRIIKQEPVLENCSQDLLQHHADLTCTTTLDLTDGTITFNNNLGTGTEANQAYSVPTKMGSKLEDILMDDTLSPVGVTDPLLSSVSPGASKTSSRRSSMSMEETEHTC", "experiment": "TRPM1 promoter luciferase signal decrease, dose response, MITF inhibitor project, cell-based, SK-MEL-5, cherry-picked, set 3 (AID 493073)", "type": "functional"}, "[2]": {"biological_target": "T2, High affinity choline transporter 1 (Homo sapiens, UniProt Q9GZV3)", "T2 sequence (Q9GZV3 whole entry)": "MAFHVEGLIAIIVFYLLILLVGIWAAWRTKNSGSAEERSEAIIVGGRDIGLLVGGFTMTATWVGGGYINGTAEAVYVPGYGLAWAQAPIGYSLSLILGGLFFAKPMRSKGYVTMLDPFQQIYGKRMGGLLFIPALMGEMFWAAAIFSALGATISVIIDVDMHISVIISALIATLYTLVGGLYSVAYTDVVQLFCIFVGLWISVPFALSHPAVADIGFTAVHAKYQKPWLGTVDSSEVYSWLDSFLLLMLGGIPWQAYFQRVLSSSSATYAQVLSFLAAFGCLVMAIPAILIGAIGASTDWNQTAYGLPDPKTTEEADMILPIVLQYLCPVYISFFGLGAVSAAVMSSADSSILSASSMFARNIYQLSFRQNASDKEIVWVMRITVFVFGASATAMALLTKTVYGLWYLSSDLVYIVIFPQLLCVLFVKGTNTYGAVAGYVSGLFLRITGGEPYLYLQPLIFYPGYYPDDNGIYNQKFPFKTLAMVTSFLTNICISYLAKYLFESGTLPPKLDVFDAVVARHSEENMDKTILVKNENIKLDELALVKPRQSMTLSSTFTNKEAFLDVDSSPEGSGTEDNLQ", "experiment": "CHT inhibitors, dose response, cell-based, 5-point CRC, membrane potential dye (AID 504840)", "type": "functional"}, "[3]": {"experiment": "control 3'UTR Renilla luciferase suppression, dose response, counter-screen for Shn3 inhibitor project, cell-based, Clone20-Shn3RL, cherry-picked (AID 624133)", "type": "functional"}, "[4]": {"experiment": "Shn3 3'UTR reporter inhibitors, dose response, cell-based, Clone20 osteoblasts, firefly luciferase, cherry-picked (AID 624132)", "type": "functional"}, "[5]": {"experiment": "THP-1 cell cytotoxicity, dose response, cytotoxicity control for non-replicating M. tuberculosis project (AID 489025)", "type": "functional"}, "[6]": {"experiment": "HepG2 cell cytotoxicity, dose response, cytotoxicity control for Shn3 inhibitor project, CellTiter-Glo, cherry-picked (AID 624134)", "type": "functional, cell-based"}, "cells": {"experiment": "cells", "type": "functional"}, "A-375": {"system": "A-375", "experiment": "A375 melanoma cell viability reduction, dose response, counter-screen for MITF modulator project, cherry-pick samples, set 2 (AID 540335)", "type": "functional, cell-based", "details": "Homo sapiens"}, "[7]": {"experiment": "HepG2 cell cytotoxicity, dose response, cytotoxicity control for non-replicating M. tuberculosis project (AID 489018)", "type": "functional", "details": "Mycobacterium tuberculosis"}, "[8]": {"experiment": "Vero E6 cell cytotoxicity, dose response, cytotoxicity control for non-replicating M. tuberculosis project, secondary assay (AID 492998)", "type": "functional, VeroE6", "details": "Vero C1008"}, "[9]": {"experiment": "microbe, parasite or virus in culture", "type": "functional", "details": "Mycobacterium tuberculosis"}, "Mu-type opioid receptor": {"biological_target": "Mu-type opioid receptor (Homo sapiens, UniProt P35372)", "sequence (P35372 whole entry)": "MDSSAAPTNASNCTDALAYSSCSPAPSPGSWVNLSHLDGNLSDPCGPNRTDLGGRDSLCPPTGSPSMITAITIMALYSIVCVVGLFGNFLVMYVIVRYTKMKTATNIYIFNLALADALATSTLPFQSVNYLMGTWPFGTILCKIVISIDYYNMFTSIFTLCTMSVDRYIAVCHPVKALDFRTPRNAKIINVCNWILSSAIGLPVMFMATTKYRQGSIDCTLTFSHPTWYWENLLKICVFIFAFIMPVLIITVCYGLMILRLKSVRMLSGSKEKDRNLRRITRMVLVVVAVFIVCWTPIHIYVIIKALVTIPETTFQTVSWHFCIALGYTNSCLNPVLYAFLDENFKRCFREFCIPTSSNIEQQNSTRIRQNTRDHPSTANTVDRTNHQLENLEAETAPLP", "experiment": "(§1) Counterscreen for agonists of heterodimerization of the mu 1 (OPRM1) and delta 1 (OPRD1) opioid receptors: Luminescence-based cell-based high throughput dose response assay to identify agonists of OPRM1 homodimerization.", "type": "functional"}, "[10]": {"biological_target": "Delta-type opioid receptor (Homo sapiens, UniProt P41143)", "sequence (P41143 whole entry)": "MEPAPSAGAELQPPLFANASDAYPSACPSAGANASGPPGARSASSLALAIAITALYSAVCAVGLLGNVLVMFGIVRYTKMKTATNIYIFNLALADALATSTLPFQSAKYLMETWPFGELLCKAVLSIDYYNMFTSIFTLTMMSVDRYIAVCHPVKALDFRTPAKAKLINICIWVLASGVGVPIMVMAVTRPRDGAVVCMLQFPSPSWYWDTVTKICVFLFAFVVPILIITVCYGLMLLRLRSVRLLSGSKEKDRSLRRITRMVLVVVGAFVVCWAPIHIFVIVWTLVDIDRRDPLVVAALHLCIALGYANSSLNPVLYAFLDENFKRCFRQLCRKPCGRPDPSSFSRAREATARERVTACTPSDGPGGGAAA", "experiment": "as §1, with “of OPRD1” for “of OPRM1”, “homodimerization. [Related pubchem assays (depositor defined):AID504326, AID504355, AID504692, AID504904, AID504905]” for “homodimerization.”", "type": "functional"}, "[11]": {"biological_target": "T3, Short transient receptor potential channel 4 (Mus musculus, UniProt Q9QUQ5)", "T3 sequence (Q9QUQ5 whole entry)": "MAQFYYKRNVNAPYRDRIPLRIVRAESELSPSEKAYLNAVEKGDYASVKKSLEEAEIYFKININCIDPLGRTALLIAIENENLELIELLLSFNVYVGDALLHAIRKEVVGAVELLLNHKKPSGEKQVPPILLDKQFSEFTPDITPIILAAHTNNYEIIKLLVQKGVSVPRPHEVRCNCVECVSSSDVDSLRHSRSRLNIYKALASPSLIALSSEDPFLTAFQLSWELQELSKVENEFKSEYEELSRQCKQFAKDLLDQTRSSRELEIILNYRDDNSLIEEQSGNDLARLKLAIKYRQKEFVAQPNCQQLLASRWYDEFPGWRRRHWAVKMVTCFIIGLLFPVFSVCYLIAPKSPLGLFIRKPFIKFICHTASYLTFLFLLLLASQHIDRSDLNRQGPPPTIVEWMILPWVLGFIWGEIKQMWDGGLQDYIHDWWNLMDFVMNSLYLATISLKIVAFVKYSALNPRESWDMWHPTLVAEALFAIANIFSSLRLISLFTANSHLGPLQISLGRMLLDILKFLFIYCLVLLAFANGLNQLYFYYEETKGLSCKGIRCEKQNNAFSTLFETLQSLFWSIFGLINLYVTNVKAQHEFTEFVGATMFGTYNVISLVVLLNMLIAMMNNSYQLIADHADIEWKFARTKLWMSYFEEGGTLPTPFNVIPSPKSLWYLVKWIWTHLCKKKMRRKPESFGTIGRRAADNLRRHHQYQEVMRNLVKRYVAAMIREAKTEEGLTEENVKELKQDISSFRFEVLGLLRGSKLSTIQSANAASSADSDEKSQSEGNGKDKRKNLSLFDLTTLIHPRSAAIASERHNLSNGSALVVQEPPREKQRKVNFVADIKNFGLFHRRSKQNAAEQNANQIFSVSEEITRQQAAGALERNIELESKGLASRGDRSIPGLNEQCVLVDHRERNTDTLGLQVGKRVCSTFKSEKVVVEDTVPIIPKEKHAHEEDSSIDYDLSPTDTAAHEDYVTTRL", "experiment": "mouse TRPC4 channel activators, dose response, cell-based, HEK293 TRPC4/mu-opioid, Fluo-4 calcium (AID 434937)", "type": "functional"}, "[12]": {"biological_target": "5-hydroxytryptamine receptor 5A (Homo sapiens, UniProt P47898)", "sequence (P47898 whole entry)": "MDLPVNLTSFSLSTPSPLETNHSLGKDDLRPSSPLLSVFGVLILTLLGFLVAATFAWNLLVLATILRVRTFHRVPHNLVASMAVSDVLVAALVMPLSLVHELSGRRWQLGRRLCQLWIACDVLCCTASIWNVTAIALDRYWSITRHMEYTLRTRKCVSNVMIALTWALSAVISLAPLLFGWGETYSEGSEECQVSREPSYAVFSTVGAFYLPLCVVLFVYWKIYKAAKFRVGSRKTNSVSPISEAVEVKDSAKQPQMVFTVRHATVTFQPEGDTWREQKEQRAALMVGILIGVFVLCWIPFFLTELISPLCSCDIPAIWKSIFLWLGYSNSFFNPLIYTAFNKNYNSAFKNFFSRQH", "experiment": "Counterscreen for agonists of OPRM1-OPRD1 heterodimerization: luminescence-based cell-based high throughput dose response assay to identify agonists of 5-hydroxytryptamine (serotonin) 5A receptor (HTR5A). [Related pubchem assays (depositor defined):AID504326, AID504355, AID504692, AID504904, AID504905]", "type": "functional"}, "[13]": {"biological_target": "C-C chemokine receptor type 6 (Homo sapiens, UniProt P51684)", "sequence (P51684 whole entry)": "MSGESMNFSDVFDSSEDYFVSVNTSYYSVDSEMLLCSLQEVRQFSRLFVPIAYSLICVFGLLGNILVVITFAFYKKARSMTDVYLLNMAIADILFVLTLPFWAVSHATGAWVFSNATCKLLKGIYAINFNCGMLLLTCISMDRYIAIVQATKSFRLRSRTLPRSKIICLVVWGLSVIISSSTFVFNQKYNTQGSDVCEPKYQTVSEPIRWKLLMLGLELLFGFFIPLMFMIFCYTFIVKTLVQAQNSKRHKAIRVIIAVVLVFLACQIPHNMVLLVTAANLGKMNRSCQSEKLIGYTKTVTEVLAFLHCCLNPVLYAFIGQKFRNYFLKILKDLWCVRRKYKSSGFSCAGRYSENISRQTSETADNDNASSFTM", "experiment": "CCR6 receptor antagonists, dose response, cell-based, luminescent beta-arrestin readout (AID 504728)", "type": "functional"}, "Beta-galactosidase": {"biological_target": "Beta-galactosidase (Escherichia coli, UniProt Q8VNN2)", "sequence (Q8VNN2 whole entry)": "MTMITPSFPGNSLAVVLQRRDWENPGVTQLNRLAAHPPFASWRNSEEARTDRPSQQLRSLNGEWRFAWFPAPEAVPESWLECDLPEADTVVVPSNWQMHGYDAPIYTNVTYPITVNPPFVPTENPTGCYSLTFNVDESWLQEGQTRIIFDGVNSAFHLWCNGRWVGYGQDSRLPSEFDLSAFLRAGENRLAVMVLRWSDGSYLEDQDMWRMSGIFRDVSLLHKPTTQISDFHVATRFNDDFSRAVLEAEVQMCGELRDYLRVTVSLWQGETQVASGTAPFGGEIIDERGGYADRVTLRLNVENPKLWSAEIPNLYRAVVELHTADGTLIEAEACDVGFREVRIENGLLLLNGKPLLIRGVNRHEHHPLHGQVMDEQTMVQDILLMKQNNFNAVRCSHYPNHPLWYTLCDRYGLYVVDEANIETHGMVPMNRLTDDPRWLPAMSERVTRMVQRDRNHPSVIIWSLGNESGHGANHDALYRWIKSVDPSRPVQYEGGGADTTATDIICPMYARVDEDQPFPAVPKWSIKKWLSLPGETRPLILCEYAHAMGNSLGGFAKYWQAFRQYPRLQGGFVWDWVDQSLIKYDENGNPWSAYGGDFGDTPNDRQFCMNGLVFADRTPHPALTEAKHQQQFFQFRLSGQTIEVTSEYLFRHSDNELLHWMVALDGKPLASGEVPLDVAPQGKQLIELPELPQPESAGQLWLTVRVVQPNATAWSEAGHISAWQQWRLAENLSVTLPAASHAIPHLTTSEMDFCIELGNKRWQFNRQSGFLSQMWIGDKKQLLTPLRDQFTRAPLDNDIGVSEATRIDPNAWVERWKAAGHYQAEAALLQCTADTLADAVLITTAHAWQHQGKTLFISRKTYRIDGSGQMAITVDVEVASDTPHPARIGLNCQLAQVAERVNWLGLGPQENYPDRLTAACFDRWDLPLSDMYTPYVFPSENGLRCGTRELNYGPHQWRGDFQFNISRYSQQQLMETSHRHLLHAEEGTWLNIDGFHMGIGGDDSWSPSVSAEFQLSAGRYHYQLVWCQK", "experiment": "beta-galactosidase enzyme inhibitors and activators, dose response, artefact control for CCR6 antagonist project, biochemical, E. coli enzyme, set 3 (AID 504712)", "type": "functional"}, "Paired box protein Pax-8": {"biological_target": "Paired box protein Pax-8 (Homo sapiens, UniProt Q06710)", "sequence (Q06710 whole entry)": "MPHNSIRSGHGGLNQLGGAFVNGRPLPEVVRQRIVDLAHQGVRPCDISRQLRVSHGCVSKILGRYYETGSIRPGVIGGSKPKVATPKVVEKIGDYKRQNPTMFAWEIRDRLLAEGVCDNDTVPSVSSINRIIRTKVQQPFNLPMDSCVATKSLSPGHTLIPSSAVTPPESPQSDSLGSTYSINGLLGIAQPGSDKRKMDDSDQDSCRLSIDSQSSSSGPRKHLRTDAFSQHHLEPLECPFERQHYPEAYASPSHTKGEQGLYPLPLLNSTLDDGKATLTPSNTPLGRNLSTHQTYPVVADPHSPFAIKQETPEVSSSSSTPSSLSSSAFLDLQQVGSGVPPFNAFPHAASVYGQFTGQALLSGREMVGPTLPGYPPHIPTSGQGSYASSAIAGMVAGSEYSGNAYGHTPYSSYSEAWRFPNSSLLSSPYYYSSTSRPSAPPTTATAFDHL", "experiment": "inhibitors of PAX8-driven TPO luciferase reporter, dose response, RMG-I cells, cherry-pick (AID 687027)", "type": "functional, cell-based"}, "[14]": {"experiment": "cytotoxicity toward NIH3T3 fibroblasts, dose response, counter-screen, cell-based, ATP luminescence, mouse fibroblasts (AID 2010)", "type": "functional"}, "INS1": {"system": "INS1", "experiment": "beta cell apoptosis inhibitors, cytokine rescue, dose response, luminescence, retest (AID 449756)", "type": "functional, cell-based", "details": "Rattus norvegicus"}, "[15]": {"experiment": "Luminescence Cell-Based Dose Retest to Confirm Inhibitors of Cancer Stem Cells. [Related pubchem assays (depositor defined):AID2717, AID2721]", "type": "functional", "details": "Homo sapiens"}, "[16]": {"biological_target": "T4, Heat shock factor protein 1 (Mus musculus, UniProt P38532)", "T4 sequence (P38532 whole entry)": "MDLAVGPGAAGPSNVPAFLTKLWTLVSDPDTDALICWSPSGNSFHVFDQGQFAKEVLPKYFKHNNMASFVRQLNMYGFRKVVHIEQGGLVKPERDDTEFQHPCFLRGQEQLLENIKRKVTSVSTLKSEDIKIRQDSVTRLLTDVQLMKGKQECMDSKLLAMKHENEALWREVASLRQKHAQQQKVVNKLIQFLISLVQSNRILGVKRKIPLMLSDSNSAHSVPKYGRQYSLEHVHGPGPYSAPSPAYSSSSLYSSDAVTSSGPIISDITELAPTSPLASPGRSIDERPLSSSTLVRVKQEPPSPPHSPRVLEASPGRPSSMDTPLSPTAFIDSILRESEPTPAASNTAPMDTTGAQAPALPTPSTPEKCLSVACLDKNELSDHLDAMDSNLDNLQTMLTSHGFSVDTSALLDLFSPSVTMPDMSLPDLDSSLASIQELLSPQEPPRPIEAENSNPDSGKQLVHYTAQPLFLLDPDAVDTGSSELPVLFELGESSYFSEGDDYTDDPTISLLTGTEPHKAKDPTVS", "experiment": "inhibition of MG132-induced HSE-luciferase signal, confirmation, cell-based, NIH3T3, luminescence, dose retest (AID 2382)", "type": "functional"}, "[17]": {"experiment": "non-specific cell cytotoxicity, dose response, cytotoxicity control for PAX8 inhibitor project, plate reader, dry powder samples (AID 743021)", "type": "functional, cell-based"}, "[18]": {"experiment": "inhibitors of intracellular T. cruzi replication, confirmation, NIH3T3 host cells, beta-gal luminescence (AID 2044)", "type": "functional, cell-based"}},
  "note": "Activity calls are given as the source filed them.",
  "data": [
    {"smiles": "N=c1n(Cc2ccc(Cl)cc2)c2ccccc2n1CC(O)COc1ccccc1", "note": "(stereo unspecified)", "values": [
      {"measurement": "AC50", "setting": "[1]", "result": "9.25 µM (active)"},
      {"measurement": "IC50", "setting": "[2]", "result": "15 µM (active)"},
      {"measurement": "AC50", "setting": "[3]", "result": "3.61 µM (active)"},
      {"measurement": "AC50", "setting": "[4]", "result": "2.34 µM (active)"},
      {"measurement": "CC50", "setting": "[5]", "result": "11.8 µM (active)"},
      {"measurement": "AC50", "setting": "[6]", "result": "14.2 µM (active)"},
      {"measurement": "IC50", "setting": "cells", "result": "14.1 µM (active)"},
      {"measurement": "AC50", "setting": "A-375", "result": "13.9 µM (active)"},
      {"measurement": "CC50", "setting": "[7]", "result": "8.02 µM (active)"},
      {"measurement": "CC50", "setting": "[8]", "result": "11.8 µM (active)"},
      {"measurement": "CC50", "setting": "[9]", "result": "11.6 µM (active)"}
    ]},
    {"smiles": "COc1ccc(C(CNC(=O)c2ccc(S(=O)(=O)N(C)C)cc2)N(C)C)cc1", "note": "(stereo unspecified)", "values": [
      {"measurement": "EC50", "setting": "Mu-type opioid receptor", "result": "> 92.5 µM (inactive)"},
      {"measurement": "EC50", "setting": "[10]", "result": "85.6 µM (inactive)"},
      {"measurement": "EC50", "setting": "[11]", "result": "1.5 µM (active)"},
      {"measurement": "EC50", "setting": "[12]", "result": "> 92.5 µM (inactive)"}
    ]},
    {"smiles": "Cc1ccc(C(=O)N/C(=C\\c2ccc(-c3ccc(Br)cc3)o2)C(=O)NCCCN(C)C)cc1", "values": [
      {"measurement": "AC50", "setting": "[1]", "result": "6.84 µM (active)"},
      {"measurement": "IC50", "setting": "[13]", "result": "24.6 µM (inactive)"},
      {"measurement": "IC50", "setting": "Beta-galactosidase", "result": "> 66.6 µM (inactive)"},
      {"measurement": "AC50", "setting": "Paired box protein Pax-8", "result": "17.4 µM (active)"},
      {"measurement": "EC50", "setting": "[14]", "result": "> 30 µM (not active)"},
      {"measurement": "AC50", "setting": "INS1", "result": "7.33 µM (active)"},
      {"measurement": "AC50", "setting": "[15]", "result": "2.81 µM (active)"},
      {"measurement": "AC50", "setting": "A-375", "result": "17.7 µM (active)"},
      {"measurement": "EC50", "setting": "[16]", "result": "24.1 µM (active)"},
      {"measurement": "AC50", "setting": "[17]", "result": "61.2 µM (active)"},
      {"measurement": "EC50", "setting": "[18]", "result": "1.56 µM (active)"}
    ]}
  ]
}
